Reference: PubChem BioAssay AID720512 (Broad Institute, 2013)
Calls of active or inactive are those of the source. How the calls were made is not given here.

Target: Toxin B (TcdB) glycohydrolase, Clostridioides difficile 630
Test: TcdB glycohydrolase inhibitors, dose response, biochemical, cherry-pick, plate reader (AID 720512)
Conditions: recombinant TcdB glycohydrolase activity

Compound | activity change, negative = inhibition (at 19.5 µM (top of the series)) | further results
Oc1ccc2ccc3[nH]cnc3c2c1 | – | AC50: > 39 µM (inactive)
O=C(O)c1cc(-c2ccccc2Cl)n(-c2cccc(Cl)c2)n1 | inactive | –
CNC(=O)C[C@H]1CC[C@@H]2[C@H](COc3ccc(NC(=O)c4ccc(OC)cc4)cc3C(=O)N2C)O1 | inactive | –
COc1ccc(CC(=O)NNC(=S)NC(=O)c2cccnc2)cc1 | inactive | –
Cc1ccc(C(=O)OCC(=O)c2cc(C)n(CC3CCCO3)c2C)cc1 (configuration not stated) | inactive | –
CCOc1ccc2ccccc2c1/C=N/NC(=O)c1ccncc1 | inactive | –
Nc1ccc2c(c1)Nc1ccccc1CC2 | inactive | –
COCC(=O)N1CC[C@@H]2[C@H]1c1cc(-c3cccc(OC)c3)ccc1N(C)[C@H]2CO | – | activity change, negative = inhibition (at 21 µM (top of the series)): inactive
Cc1ccc(C2=NS(=O)(=O)N(C)C(C(=O)NCc3ccccc3)=C2)cc1 | inactive | –
Cc1ccc(S(=O)(=O)Oc2ccccc2/C=C2/SC(=O)NC2=O)cc1 | inactive | –
O=C(/C=C/c1ccccc1)Nc1cccnc1Cl | inactive | –
Cn1c(=O)[nH]c(=O)c2c1[nH]c(=S)n2Cc1ccccc1 | inactive | –
COc1ccc(C2=NS(=O)(=O)N(C)C(C(=O)NC(C)c3ccccc3)=C2)cc1 (configuration not stated) | inactive | –
CCN1CCN(S(=O)(=O)c2ccc3[nH]c(=O)oc3c2)CC1 | inactive | –
Cc1cc(C)nc(/N=C(\N)Nc2ccccc2-c2ccccc2)n1 | inactive | –
O=C(Nc1ccc(N2CCOCC2)c(Cl)c1)c1ccc(F)cc1 | inactive | –
C/C(=N\NC(=O)CSc1nc2ccccc2c(=O)n1-c1ccccc1C)c1cccs1 | inactive | –
COCC(=O)N1CC[C@H]2[C@@H]1c1cc(-c3ccc(OC)cc3)ccc1N(C)[C@H]2CO | – | AC50: > 39 µM (inactive)
O=C(C1CCOCC1)N1CC[C@@H]2[C@@H](CO)Nc3ccc(-c4ccc(F)cc4)cc3[C@@H]21 | inactive | –
CCOC(=O)c1ccc2ncc(-c3ccccc3)nc2c1 | inactive | –
CCOc1ccc(C(CC(=O)O)NC(=O)C23CC4CC(CC(C4)C2)C3)cc1OC (configuration not stated) | inactive | –
CC(=O)N1CC[C@@H]2[C@@H](CO)Nc3ccc(-c4ccccc4)cc3[C@@H]21 | – | activity change, negative = inhibition (at 21 µM (top of the series)): inactive

Compound | activity change, negative = inhibition (at 19.5 µM (top of the series)) | further results
COCC(=O)N1CC[C@@H]2[C@H]1c1cc(-c3ccccc3)ccc1N(C)[C@H]2CO | inactive | –
COc1cc(/C=C(/NC(=O)c2ccccc2)C(=O)Nc2ccc(O)cc2)c([N+](=O)[O-])cc1OC | inactive | –
O=C1CCCC2=C1Sc1ccccc1N2 | inactive | –
Clc1ccc(/C=C/c2ncc[nH]2)c(Cl)c1 | inactive | –
CC(Sc1nc2ccccc2n1C)C(=O)Nc1ccc(N2CCOCC2)cc1 (configuration not stated) | inactive | –
CCOC(=O)/C=c1/s/c(=C/c2ccc3cc(OC)ccc3c2)c(=O)n1CC(=O)NCC1CCCO1 (configuration not stated) | inactive | –
Nc1ncnc2[nH]c(=S)[nH]c12 | inactive | –
COc1ccc(-c2ccc3c(c2)[C@H]2[C@H](CCN2C(=O)CN2CCOCC2)[C@@H](CO)N3)cc1 | inactive | –
Cc1nc2[nH]c(=S)[nH]c2c(=O)[nH]1 | inactive | –
O=c1c2ccc(Cl)cc2[nH]c(=S)n1-c1cccnc1 | inactive | –
C[C@@H]1CN([C@@H](C)CO)S(=O)(=O)c2ccc(-c3ccncc3)cc2O[C@@H]1CN(C)Cc1ccc(Oc2ccccc2)cc1 | inactive | –
COc1cc(/C=N/NC(=O)CCN2CCCCC2)ccc1O | inactive | –
C[C@H](CO)N1C[C@H](C)[C@H](CN(C)Cc2ccc(Oc3ccccc3)cc2)Oc2cc(-c3ccncc3)ccc2S1(=O)=O | inactive | –
O=C(Nc1ccc(O)cc1)/C(=C\c1cccs1)NC(=O)c1ccccc1 | inactive | –
O=C(O)COn1c(-c2ccc(Cl)cc2)nc2ccc(Cl)cc21 | – | AC50: > 39 µM (inactive)
COCc1c(Br)c(C)nc(OCC(=O)N/N=C/c2ccc(C)o2)c1C#N | inactive | –
Cc1ccc(/C=C/c2onc(C)c2S(=O)(=O)N2CCC(C(=O)N3CCCCC3)CC2)cc1 | inactive | –
Cc1ccc(S(=O)(=O)Nc2cccnc2Oc2ccc(Cl)cc2)cc1 | inactive | –
COc1cc(C(=O)Nc2scc(-c3ccccc3)c2C(=O)O)cc(OC)c1OC | inactive | –
O=C(Nc1ccc(O)cc1)C1CCCN1S(=O)(=O)c1ccc(F)cc1 (configuration not stated) | inactive | –
COc1cccc(/C=C/c2onc(C)c2S(=O)(=O)N2CCC(C(=O)NC3CCCCCC3)CC2)c1 | inactive | –
Cc1cccc(/C=C/c2onc(C)c2S(=O)(=O)N2CCC(C(=O)N3CCCCCC3)CC2)c1 | inactive | –

Compound | activity change, negative = inhibition (at 19.5 µM (top of the series)) | further results
Cc1nn(CCOc2ccccc2)c(=O)n1-c1ccc(Cl)cc1 | inactive | –
S=C(NCCc1ccccc1)Nc1ncccn1 | inactive | –
CCC(=O)N1CC[C@@H]2[C@H]1c1cc(-c3ccccc3)ccc1N(C)[C@H]2CO | – | AC50: > 42 µM (inactive)
CCN1CCN(C(=O)C2=CC(c3ccc(OC)cc3)=NS(=O)(=O)N2C)CC1 | inactive | –
O=C(C[C@@H]1C[C@H]2c3cc(NC(=O)Nc4ccccc4)ccc3O[C@H]2[C@H](CO)O1)NCc1ccccc1 | inactive | –
Cc1ccc(C(=O)NCCn2cc(SCC(=O)Nc3cc(C)on3)c3ccccc32)cc1 | inactive | –
COc1ccc(C(NC(C)=O)c2cc(Cl)c3cccnc3c2O)cc1 (configuration not stated) | inactive | –
Cc1ccc(/C=C(\C#N)C(=O)Nc2ccccn2)o1 | inactive | –
COc1ccc(N2CCN(CCNC(=O)Nc3cc(Cl)ccc3OC)CC2)cc1 | inactive | –
CNC(=O)C[C@@H]1CC[C@@H]2[C@H](COc3ccc(NS(=O)(=O)c4ccccc4C)cc3C(=O)N2C)O1 | inactive | –
O=CN(c1ccccc1)c1ccc2ccccc2c1 | inactive | –
COc1ccc(CC(=O)C2C(=O)N(C)c3ccccc32)cc1OC (configuration not stated) | inactive | –
COc1cc(/C=C(\C#N)C(=O)Nc2ccc3c(c2)OCCO3)ccc1O | inactive | –
Cn1ncc(Cl)c1C(=O)N/N=C/c1cccc(OC2CSC2)c1 | inactive | –
CCC(=O)Nc1ccc2c(c1)OC[C@@H](C)N(C(=O)NC(C)C)C[C@H](C)[C@H](OC)CN(C)C2=O | inactive | –
Cc1cccn2c(CN(C)C3CCCc4ccccc43)c(C(=O)N3CCOCC3)nc12 (configuration not stated) | inactive | –
COC(=O)C1=C[C@@H](C(=O)OC)[C@@H]2C3=C(C(=O)[C@]2(C)NC(=O)c2ccccc2)[C@H](C)n2c(=O)n(C)c(=O)n2[C@@H]3C1 | inactive | –
CC1CCC/C(=C\c2ccc(O)cc2)C1=O (configuration not stated) | – | AC50: 16.9 µM
Cc1ccc(SCCC(=O)N/N=C/c2cccnc2)cc1 | inactive | –
COc1cc2[nH]c(=S)n(Cc3cccs3)c(=O)c2cc1OC | inactive | –
CCC(=O)N1CC[C@@H]2[C@@H](CO)N(C)c3ccc(-c4ccccc4)cc3[C@@H]21 | – | AC50: > 42 µM (inactive)
COc1ccc(NC(c2ccccc2)c2ccncc2)cc1 (configuration not stated) | inactive | –

Compound | activity change, negative = inhibition (at 19.5 µM (top of the series)) | further results
COc1ccc(S(=O)(=O)N2CCOCC2)cc1NC(=O)COC(=O)c1[nH]c(C)c(C(C)=O)c1C | inactive | –
CCOC(=O)C1=C(C)Nc2nnnn2C1c1ccc(OC)c(Br)c1 (configuration not stated) | inactive | –
COc1ccc(S(=O)(=O)Nc2ccc3oc(C)c(C(=O)O)c3c2)cc1 | inactive | –
CC1CN=C(Nc2cccc(S(=O)(=O)N(C)C)c2)S1 (configuration not stated) | inactive | –
CCOC(=O)N1CCN(C(=S)NC(=O)c2ccc(F)c(F)c2)CC1 | inactive | –
O=C(CCNC(=O)c1ccccc1Cl)N/N=C\c1ccc(O)cc1 | inactive | –
ClCC(CNCc1ccccc1)c1ccccc1 (configuration not stated) | inactive | –
O=C(N[C@@H](Cc1c[nH]c2ccccc12)C(=O)O)C1CCN(S(=O)(=O)c2cccs2)CC1 | inactive | –
Cc1ccc(S(=O)(=O)Oc2ccccc2/C=C2\SC(=O)NC2=O)cc1 | inactive | –
CCCN1CCN(C(=O)C2CCN(S(=O)(=O)c3c(C)noc3/C=C/c3ccc(C)cc3)CC2)CC1 | inactive | –
CCCNC(=O)C[C@H]1CC[C@@H]2[C@H](COc3ccc(NC(=O)c4ccc(Cl)cc4)cc3C(=O)N2C)O1 | – | AC50: > 39 µM (inactive)
CC1CCN(CCCn2c(=S)[nH]c3c(sc4ccccc43)c2=O)CC1 | inactive | –
Cc1ccc(C(=O)COC(=O)c2cc(=O)[nH]c3ccccc23)cc1 | inactive | –
COc1cc(/C=N/n2c(-c3ccccc3)n[nH]c2=S)ccc1O | – | AC50: > 39 µM (inactive)
COc1ccc(NC(=O)C2CC(=O)N(c3ccccc3F)C2)cc1S(=O)(=O)N1CCCCC1 (configuration not stated) | inactive | –
CC1(C)Cc2c(sc3ncn4c(=S)[nH]nc4c23)CO1 | – | AC50: > 39 µM (inactive)
O=C(C[C@@H]1CC[C@H]2[C@@H](COC[C@H](O)CN2C(=O)c2ccccn2)O1)NC1CCC1 | inactive | –
CCOCCCNC(=O)C1CCN(S(=O)(=O)c2c(C)noc2/C=C\c2ccc(OC)cc2)CC1 | inactive | –
COc1ccc(-c2cnc3c(c2)C(=O)N([C@@H](C)CO)C[C@H](C)[C@H](CN(C)C(=O)C2CCCCC2)O3)cc1 | inactive | –
CC(C)c1cc(CN2CCN(Cc3ccc(F)c(F)c3)C(CCO)C2)[nH]n1 (configuration not stated) | inactive | –
CC(C)NC(=O)N1CC[C@@H]2[C@H]1c1cc(-c3ccccc3)ccc1N(C)[C@H]2CO | – | AC50: > 39 µM (inactive)
